Measurements published in PubChem BioAssay (NCI).
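A five-concentration, 48-hour dose response in 96-well plates underlies each endpoint, interpolated linearly between surrounding concentrations. At the GI50, growth is halved. Definition used: TGI = concentration required for complete inhibition of growth.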

Tests used:
Experiment in all cases: DTP human tumour cell line panel, 48 h
[1] = test system: MALME-3M melanoma
[2] = test system: K-562 leukemia
[3] = test system: HOP-62 NSCLC
[4] = test system: OVCAR-5 ovarian
[5] = test system: UACC-62 melanoma
[6] = test system: LOX IMVI melanoma
[7] = test system: UO-31 renal
[8] = test system: NCI-H23 lung
[9] = test system: SF-268 CNS
[10] = test system: TK-10 renal

For `C=CCc1c2c(c(OC)c3ccoc13)C(=O)/C(=C/c1ccccc1OC)O2`, the GI50 [1] was 19.8 µM, the TGI [1] was greater than 100 µM and the GI50 [2] was 3.51 µM. For the same compound, the TGI [2] was greater than 100 µM, the GI50 [3] was 4.98 µM and the TGI [3] was 46.3 µM. It also gave a GI50 [4] of 3.57 µM, a TGI [4] greater than 100 µM and a GI50 [5] of 4.14 µM. It also gave a TGI [5] of 58.4 µM, a GI50 [6] of 3.13 µM and a TGI [6] of 27.1 µM. For the same compound, the GI50 [7] was 4.98 µM, the TGI [7] was greater than 100 µM and the GI50 [8] was 2.88 µM. For the same compound, the TGI [8] was 14.7 µM, the GI50 [9] was 3.73 µM and the TGI [9] was 60.4 µM. It also gave a GI50 [10] of 6.5 µM and a TGI [10] greater than 100 µM.

Compound `CCN1C(=O)N(CC)C2C1NN=c1s/c(=C\c3cccnc3)c(=O)n12` (stereo not given) has a GI50 [1] of 0.599 µM, a TGI [1] greater than 100 µM and a GI50 [2] of 0.3 µM. The TGI [2] was greater than 100 µM, the GI50 [3] was 0.628 µM and the TGI [3] was greater than 100 µM. The GI50 [4] was 1.97 µM, the TGI [4] was greater than 100 µM and the GI50 [5] was 0.417 µM. It also gave a TGI [5] greater than 100 µM, a GI50 [6] of 0.543 µM and a TGI [6] greater than 100 µM. The GI50 [7] was 1.53 µM, the TGI [7] was greater than 100 µM and the GI50 [8] was 0.689 µM. The TGI [8] was greater than 100 µM, the GI50 [9] was 21.8 µM and the TGI [9] was greater than 100 µM. It also gave a GI50 [10] greater than 100 µM and a TGI [10] greater than 100 µM.

`N#Cc1cnc2cc(OC[C@H](O)CO)c(NC(=O)CC3CSSC3)cc2c1Nc1ccc(OCc2cccc(F)c2)c(Cl)c1` gave a GI50 [1] of 0.97 µM, a TGI [1] of 2.06 µM and a GI50 [2] of 0.122 µM. For the same compound, the TGI [2] was 0.361 µM, the GI50 [3] was 0.895 µM and the TGI [3] was 1.81 µM. It also gave a GI50 [4] of 0.872 µM, a TGI [4] of 1.89 µM and a GI50 [5] of 0.807 µM. It also gave a TGI [5] of 1.68 µM, a GI50 [6] of 2.26 µM and a TGI [6] of 3.41 µM. It also gave a GI50 [7] of 2.11 µM, a TGI [7] of 7.75 µM and a GI50 [8] of 0.772 µM. For the same compound, the TGI [8] was 1.7 µM, the GI50 [9] was 0.537 µM and the TGI [9] was 1.56 µM. The GI50 [10] was 0.873 µM and the TGI [10] was 2.13 µM.

`CC(C)(C)OC(=O)C#CC[C@H]1CCCC1/C=C/C(O)=C1/C(=O)NC(CCCNC(=O)OC(C)(C)C)C1=O` (stereo not given in full) showed a TGI [1] of 57.6 µM, a TGI [2] of 89.3 µM and a TGI [3] greater than 100 µM. It also gave a TGI [4] greater than 100 µM, a TGI [5] of 34.9 µM and a TGI [6] of 40.2 µM. It also gave a TGI [7] greater than 100 µM, a TGI [8] of 78.3 µM and a TGI [9] of 75.3 µM. It also gave a TGI [10] of 84.5 µM.

`CCN(CC)CCn1ccc(=O)c2cc3c(=O)ccn(CCN(CC)CC)c3c(C)c21` gave a TGI [1] of 29.6 µM, a TGI [2] of 26.8 µM and a TGI [3] of 19.7 µM. The TGI [4] was 29.9 µM, the TGI [5] was 29.2 µM and the TGI [6] was 7.55 µM. It also gave a TGI [7] of 17.1 µM, a TGI [8] of 19.3 µM and a TGI [9] of 17.2 µM. It also gave a TGI [10] of 26.7 µM.

Compound `CN(C)S(=O)(=O)c1ccc(NC(=O)COC(=O)c2ccc(S(=O)(=O)N3CCCCC3)cc2)cc1` has a GI50 [1] greater than 100 µM, a TGI [1] greater than 100 µM and a GI50 [2] greater than 100 µM. The TGI [2] was greater than 100 µM, the GI50 [3] was greater than 100 µM and the TGI [3] was greater than 100 µM. The GI50 [4] was greater than 100 µM, the TGI [4] was greater than 100 µM and the GI50 [5] was greater than 100 µM. It also gave a TGI [5] greater than 100 µM, a GI50 [6] greater than 100 µM and a TGI [6] greater than 100 µM. It also gave a GI50 [7] greater than 100 µM, a TGI [7] greater than 100 µM and a GI50 [8] greater than 100 µM. It also gave a TGI [8] greater than 100 µM, a GI50 [9] greater than 100 µM and a TGI [9] greater than 100 µM. For the same compound, the GI50 [10] was greater than 100 µM and the TGI [10] was greater than 100 µM.

`Cc1cccc(NC(=O)CC(=O)N2N=C(N(CCC#N)c3ccc(Cl)cc3)CC2c2ccccc2)c1` (stereo not given) showed a TGI [1] greater than 100 µM, a TGI [2] greater than 100 µM and a TGI [3] greater than 100 µM. For the same compound, the TGI [4] was greater than 100 µM, the TGI [5] was greater than 100 µM and the TGI [6] was greater than 100 µM. The TGI [7] was greater than 100 µM, the TGI [8] was greater than 100 µM and the TGI [9] was greater than 100 µM. It also gave a TGI [10] greater than 100 µM.

For `ClCCn1c(CCl)nc2ccc(Cl)cc21`, the GI50 [1] was 0.46 µM, the TGI [1] was 1.89 µM and the GI50 [2] was 0.34 µM. The TGI [2] was 1.03 µM, the GI50 [3] was 1.58 µM and the TGI [3] was 3.3 µM. For the same compound, the GI50 [4] was 1.21 µM, the TGI [4] was 2.77 µM and the GI50 [5] was 0.43 µM. For the same compound, the TGI [5] was 1.59 µM, the GI50 [6] was 0.156 µM and the TGI [6] was 0.317 µM. The GI50 [7] was 1.57 µM, the TGI [7] was 3.11 µM and the GI50 [8] was 0.252 µM. It also gave a TGI [8] of 0.832 µM, a GI50 [9] of 1.22 µM and a TGI [9] of 2.95 µM. The GI50 [10] was 1.46 µM and the TGI [10] was 2.95 µM.

With `CC1=NCCc2c1[nH]c1cc(O)ccc21` the TGI [1] was greater than 100 µM, the TGI [2] was greater than 100 µM and the TGI [3] was greater than 100 µM. For the same compound, the TGI [4] was greater than 100 µM, the TGI [5] was greater than 100 µM and the TGI [6] was greater than 100 µM. It also gave a TGI [7] greater than 100 µM, a TGI [8] greater than 100 µM and a TGI [9] greater than 100 µM. The TGI [10] was greater than 100 µM.

Compound `COc1cccc(/C=C/C(=O)c2cccc(Nc3nc(Nc4ccccc4)nc(Nc4ccccc4)n3)c2)c1` has a GI50 [1] greater than 48.7 µM, a TGI [1] greater than 100 µM and a GI50 [2] of 3.96 µM. The TGI [2] was 45.8 µM, the GI50 [3] was greater than 46.9 µM and the TGI [3] was greater than 78.1 µM. The GI50 [4] was 26.8 µM, the TGI [4] was greater than 86.3 µM and the GI50 [5] was greater than 100 µM. The TGI [5] was greater than 100 µM, the GI50 [6] was 7.04 µM and the TGI [6] was 21.3 µM. For the same compound, the GI50 [7] was 7.36 µM, the TGI [7] was 57.5 µM and the GI50 [8] was 21.3 µM. It also gave a TGI [8] greater than 100 µM, a GI50 [9] of 20.9 µM and a TGI [9] greater than 89.9 µM. The GI50 [10] was 41.5 µM and the TGI [10] was greater than 93.1 µM.

`CN1CCN(CCc2cccc(C(=O)c3cnn(-c4ccc(F)cc4)c3N)c2)CC1` was tested, and the GI50 [1] was greater than 25 µM, the TGI [1] was greater than 25 µM and the GI50 [2] was greater than 25 µM. The TGI [2] was greater than 25 µM, the GI50 [3] was greater than 25 µM and the TGI [3] was greater than 25 µM. It also gave a GI50 [4] greater than 25 µM, a TGI [4] greater than 25 µM and a GI50 [5] greater than 25 µM. It also gave a TGI [5] greater than 25 µM, a GI50 [6] greater than 25 µM and a TGI [6] greater than 25 µM. It also gave a GI50 [7] greater than 25 µM, a TGI [7] greater than 25 µM and a GI50 [8] greater than 25 µM. The TGI [8] was greater than 25 µM, the GI50 [9] was greater than 25 µM and the TGI [9] was greater than 25 µM. It also gave a GI50 [10] greater than 25 µM and a TGI [10] greater than 25 µM.

In the case of `COc1nc(NC2OCC(OC(C)=O)C(OC(C)=O)C2OC(C)=O)c(N=CC=Nc2c(NC3OCC(OC(C)=O)C(OC(C)=O)C3OC(C)=O)nc(OC)n(C)c2=O)c(=O)n1C` (stereo not given), the TGI [1] is reported as greater than 100 µM, the TGI [2] is reported as greater than 100 µM and the TGI [3] is reported as greater than 100 µM. For the same compound, the TGI [4] was greater than 100 µM, the TGI [5] was greater than 100 µM and the TGI [6] was greater than 100 µM. It also gave a TGI [7] greater than 100 µM, a TGI [8] greater than 100 µM and a TGI [9] greater than 100 µM. The TGI [10] was greater than 100 µM.

`CCN(CC)c1ccc(C(=C2C=CC(=[N+](CC)Cc3cccc(S(=O)(=O)O)c3)C=C2)c2ccc(N(CC)Cc3cccc(S(=O)(=O)O)c3)cc2)cc1` was tested, and the GI50 [1] was 5.52 µM, the TGI [1] was 53.1 µM and the GI50 [2] was 3.85 µM. It also gave a TGI [2] of 97.5 µM, a GI50 [3] of 4.59 µM and a TGI [3] greater than 96.6 µM. The GI50 [4] was 20.8 µM, the TGI [4] was greater than 100 µM and the GI50 [5] was 13 µM. The TGI [5] was 87 µM, the GI50 [6] was 4.84 µM and the TGI [6] was greater than 100 µM. The GI50 [7] was 16.3 µM, the TGI [7] was greater than 91.9 µM and the GI50 [8] was 5.14 µM. For the same compound, the TGI [8] was 80.2 µM, the GI50 [9] was 4.12 µM and the TGI [9] was greater than 79.4 µM. The GI50 [10] was 18.8 µM and the TGI [10] was greater than 100 µM.

`CC(=O)NNc1nc(C)c(C(=O)NNC(=O)C(=O)Nc2ccccc2C#N)s1` showed a TGI [1] greater than 100 µM, a TGI [2] greater than 100 µM and a TGI [3] greater than 100 µM. For the same compound, the TGI [4] was greater than 100 µM, the TGI [5] was greater than 100 µM and the TGI [6] was greater than 100 µM. The TGI [7] was greater than 100 µM, the TGI [8] was greater than 100 µM and the TGI [9] was greater than 100 µM. The TGI [10] was greater than 100 µM.
